Reference: patent publication US20250230193A1, “CYCLIC COMPOUND HAVING SELECTIVE KRAS INHIBITORY EFFECT ON HRAS AND NRAS” (CHUGAI SEIYAKU KABUSHIKI KAISHA, priority 2022, published 2025)
Like-named read-outs stand apart in the source and are kept apart here.

Legend:
[1] = target: GDP-bound HRAS wild-type protein (Homo sapiens, UniProt P01112); assay: Binding to HRAS by surface plasmon resonance (SPR), Single Cycle Kinetics; conditions: SPR; for HRAS/KRAS (ratio of KD value for GDP-bound HRAS wild-type protein to KD value for KRAS): KD ratio class; for HRAS/KRAS (ratio of KD value with respect to HRAS to KD value with respect to KRAS): GDP-bound HRAS wild-type vs GDP-bound KRAS wild-type
GDP-bound HRAS wild-type protein, sequence (P01112 whole entry): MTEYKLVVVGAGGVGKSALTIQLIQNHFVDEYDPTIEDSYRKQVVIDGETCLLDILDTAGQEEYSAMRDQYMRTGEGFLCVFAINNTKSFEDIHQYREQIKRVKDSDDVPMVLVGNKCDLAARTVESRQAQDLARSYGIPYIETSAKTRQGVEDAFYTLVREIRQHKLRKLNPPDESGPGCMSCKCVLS

[2] = target: GDP-bound NRAS wild-type protein (Homo sapiens, UniProt P01111); assay: Binding to NRAS by surface plasmon resonance (SPR), Single Cycle Kinetics; conditions: SPR; for NRAS/KRAS (ratio of KD value for GDP-bound NRAS wild-type protein to KD value for KRAS): KD ratio class; for NRAS/KRAS (ratio of KD value with respect to NRAS to KD value with respect to KRAS): GDP-bound NRAS wild-type vs GDP-bound KRAS wild-type
GDP-bound NRAS wild-type protein, sequence (P01111 whole entry): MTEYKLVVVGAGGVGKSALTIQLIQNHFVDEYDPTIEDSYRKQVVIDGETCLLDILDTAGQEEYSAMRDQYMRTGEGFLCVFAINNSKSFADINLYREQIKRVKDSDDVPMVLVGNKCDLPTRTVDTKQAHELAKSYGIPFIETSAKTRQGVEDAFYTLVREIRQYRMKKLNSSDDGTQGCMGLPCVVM

[3] = target: GDP-bound KRAS wild-type protein (Homo sapiens, UniProt P01116); assay: Binding to KRAS by surface plasmon resonance (SPR), Single Cycle Kinetics; conditions: GDP-bound KRAS wild-type protein
[4] = test system: human lung cancer strain NCI-H441
[5] = read-out: NCI-H441 IC50, NCI-H441 cells, 4 days, CellTiter-Glo

| SMILES | Kd ([3]; SPR, Single Cycle Kinetics) [nM] | IC50 [4, 5] [nM] | Kd ([3]; SPR Single Cycle Kinetics, 1:1 binding model) [nM] | IC50 [4] [nM] | HRAS/KRAS (ratio of KD value for GDP-bound HRAS wild-type protein to KD value for KRAS) [1] | NRAS/KRAS (ratio of KD value for GDP-bound NRAS wild-type protein to KD value for KRAS) [2] | HRAS/KRAS (ratio of KD value with respect to GDP-bound HRAS wild-type protein to KD value with respect to KRAS) ([1]; KD ratio HRAS/KRAS) | NRAS/KRAS (ratio of KD value with respect to GDP-bound NRAS wild-type protein to KD value with respect to KRAS) ([2]; KD ratio NRAS/KRAS) | HRAS/KRAS (ratio of KD value with respect to HRAS to KD value with respect to KRAS) [1] | NRAS/KRAS (ratio of KD value with respect to NRAS to KD value with respect to KRAS) [2] |
| --- | --- | --- | --- | --- | --- | --- | --- | --- | --- | --- |
| CCC[C@H]1C(=O)N[C@@H]([C@@H](C)CC)C(=O)N(C)CC(=O)N(C)[C@H]2C/C=C\CCN(C2=O)[C@@H](Cc2ccc(C(F)(F)F)cc2)C(=O)N(C)CC(=O)N[C@@H](CCc2cc(F)c(C(F)(F)F)c(F)c2)C(=O)N2C[C@H](OCC)C[C@H]2C(=O)NC2(CCC2)C(=O)N(C)[C@@H](C2CCCC2)C(=O)N(C)[C@H](C(=O)N2CCCC2)CC(=O)N1C [PP1299] | 0.14 | 11 |  |  | A (a compound having 10 or more and less than 20 is denoted as A) | A (a compound having 10 or more and less than 20 is denoted as A) |  |  |  |  |
| CCOC[C@H]1C(=O)N[C@@H]([C@@H](C)CC)C(=O)N(C)CC(=O)N(C)[C@H]2C/C=C\CCN(C2=O)[C@@H](Cc2ccc(C(F)(F)F)cc2)C(=O)N(C)CC(=O)N[C@@H](CCc2cc(F)c(C(F)(F)F)c(F)c2)C(=O)N2C[C@H](OCC)C[C@H]2C(=O)NC2(CCC2)C(=O)N(C)[C@@H](C2CCCC2)C(=O)N(C)[C@H](C(=O)N(C)C)CC(=O)N1C [PP1266] | 0.045 | 12.2 |  |  | A (a compound having 10 or more and less than 20 is denoted as A) | A (a compound having 10 or more and less than 20 is denoted as A) |  |  |  |  |
| CC[C@H](C)[C@@H]1NC(=O)[C@H](CC(C)C)N(C)C(=O)C[C@@H](C(=O)N(C)C)N(C)C(=O)[C@H](C2CCCC2)N(C)C(=O)C2(CCCC2)NC(=O)C2CCCN2C(=O)[C@H](CCc2ccc(C(F)(F)F)c(Cl)c2)NC(=O)CN(C)C(=O)[C@H](Cc2ccc(C(F)(F)F)cc2)N2CC/C=C(/C)C[C@@H](C2=O)N(C)C(=O)CN(C)C1=O (some centres unmarked) [PP0617] |  |  | 6.9 | 159 |  |  | B (a compound having 3 or more and less than 10 is denoted as B) | B (a compound having 3 or more and less than 10 is denoted as B) |  |  |
| CC[C@H](C)[C@@H]1NC(=O)[C@H](C)N(C)C(=O)C[C@@H](C(=O)N(C)C)N(C)C(=O)[C@H](C2CCCC2)N(C)C(=O)C2(CCC2)NC(=O)[C@@H]2CCCN2C(=O)[C@H](CCc2cc(F)c(C(F)(F)F)c(F)c2)NC(=O)CN(C)C(=O)[C@H](Cc2ccc(C(F)(F)F)cc2)N2CC/C=C\C[C@@H](C2=O)N(C)C(=O)CN(C)C1=O [PP1271] | 0.054 | 90.7 |  |  | A (a compound having 10 or more and less than 20 is denoted as A) | AA (a compound having 20 or more is denoted as AA) |  |  |  |  |
| CCO[C@@H]1C[C@H]2C(=O)NC3(CCC3)C(=O)N(C)[C@@H](C3CCCC3)C(=O)N(CC)[C@H](C(=O)N(C)C)CC(=O)N(C)[C@@H](CC)C(=O)N[C@@H]([C@@H](C)CC)C(=O)N(C)CC(=O)N(C)[C@H]3CCCCCN(C3=O)[C@@H](Cc3ccc(F)cc3)C(=O)N(C)CC(=O)N[C@@H](CCc3cc(F)c(C(F)(F)F)c(F)c3)C(=O)N2C1 [PP0904] | 0.8 |  |  | 58.7 |  |  |  |  | B (a compound having 3 or more and less than 10 is denoted as B) | B (a compound having 3 or more and less than 10 is denoted as B) |
| CCCCCC[C@H]1C(=O)N[C@@H]([C@@H](C)CC)C(=O)N(C)CC(=O)N(C)[C@H]2C/C=C\CCN(C2=O)[C@@H](Cc2ccc(C(F)(F)F)cc2)C(=O)N(C)CC(=O)N[C@@H](CCc2ccc(C(F)(F)F)c(OC)c2)C(=O)N2C[C@H](OCC)C[C@H]2C(=O)NC2(CCC2)C(=O)N(C)[C@@H](C2CCCC2)C(=O)N(C)[C@H](C(=O)N(C)C)CC(=O)N1C [PP1246] | 0.081 | 9 |  |  | A (a compound having 10 or more and less than 20 is denoted as A) | A (a compound having 10 or more and less than 20 is denoted as A) |  |  |  |  |
| CCO[C@@H]1C[C@H]2C(=O)NC3(CCC3)C(=O)N(C)[C@@H](C3CCCC3)C(=O)N(CC)[C@H](C(=O)N3CCOCC3)CC(=O)N(C)[C@@H](CC)C(=O)N[C@@H]([C@@H](C)CC)C(=O)N(C)CC(=O)N(C)[C@H]3CCCCCN(C3=O)[C@@H](Cc3ccc(F)cc3)C(=O)N(C)CC(=O)N[C@@H](CCc3cc(F)c(C(F)(F)F)c(F)c3)C(=O)N2C1 [PP0905] | 0.79 |  |  | 92 |  |  |  |  | B (a compound having 3 or more and less than 10 is denoted as B) | B (a compound having 3 or more and less than 10 is denoted as B) |
| CCO[C@@H]1C[C@H]2C(=O)NC3(CCCC3)C(=O)N(C)[C@@H](C3CCCC3)C(=O)N(C)[C@H](C(=O)N(C)C)CC(=O)N(C)[C@@H](CC)C(=O)N[C@@H]([C@@H](C)CC)C(=O)N(C)CC(=O)N(C)[C@H]3C/C=C\CCN(C3=O)[C@@H](Cc3ccc(C(F)(F)F)cc3)C(=O)N(C)CC(=O)N[C@@H](CCc3cc(F)c(C(F)(F)F)c(F)c3)C(=O)N2C1 [PP1276] | 0.066 | 20.8 |  |  | B (a compound having 3 or more and less than 10 is denoted as B) | A (a compound having 10 or more and less than 20 is denoted as A) |  |  |  |  |

Further lines, with some results ahead:

| Kd ([3]; SPR, Single Cycle Kinetics) [nM] | IC50 [4, 5] [nM] | Kd ([3]; SPR Single Cycle Kinetics, 1:1 binding model) [nM] | IC50 [4] [nM] | SMILES | HRAS/KRAS (ratio of KD value for GDP-bound HRAS wild-type protein to KD value for KRAS) [1] | NRAS/KRAS (ratio of KD value for GDP-bound NRAS wild-type protein to KD value for KRAS) [2] | HRAS/KRAS (ratio of KD value with respect to GDP-bound HRAS wild-type protein to KD value with respect to KRAS) ([1]; KD ratio HRAS/KRAS) | NRAS/KRAS (ratio of KD value with respect to GDP-bound NRAS wild-type protein to KD value with respect to KRAS) ([2]; KD ratio NRAS/KRAS) | HRAS/KRAS (ratio of KD value with respect to HRAS to KD value with respect to KRAS) [1] | NRAS/KRAS (ratio of KD value with respect to NRAS to KD value with respect to KRAS) [2] |
| --- | --- | --- | --- | --- | --- | --- | --- | --- | --- | --- |
| 0.069 | 10.3 |  |  | CC[C@H](C)[C@@H]1NC(=O)[C@H](CC2CC2)N(C)C(=O)C[C@@H](C(=O)N(C)C)N(C)C(=O)[C@H](C2CCCC2)N(C)C(=O)C2(CCC2)NC(=O)[C@@H]2C[C@@H](C(F)(F)F)CN2C(=O)[C@H](CCc2cc(F)c(C(F)(F)F)c(F)c2)NC(=O)CN(C)C(=O)[C@H](Cc2ccc(C(F)(F)F)cc2)N2CC/C=C\C[C@@H](C2=O)N(C)C(=O)CN(C)C1=O [PP1498] | A (a compound having 10 or more and less than 20 is denoted as A) | A (a compound having 10 or more and less than 20 is denoted as A) |  |  |  |  |
| 4.3 | 144 |  |  | CCO[C@@H]1C[C@H]2C(=O)NC3(CC(C)(C)C3)C(=O)N(C)[C@@H](C(CC)CC)C(=O)N(C)C(C(C)C)CC(=O)N(C)[C@@H](CC3CC3)C(=O)N[C@@H]([C@@H](C)CC)C(=O)N(C)CC(=O)N(C)[C@H]3C/C=C\CCN(C3=O)[C@@H](Cc3ccc(C(F)(F)F)cc3)C(=O)N(C)CC(=O)N[C@@H](CCc3cc(F)c(C(F)(F)F)c(F)c3)C(=O)N2C1 (some centres unmarked) [PP1593] | A (a compound having 10 or more and less than 20 is denoted as A) | A (a compound having 10 or more and less than 20 is denoted as A) |  |  |  |  |
| 0.14 | 61.1 |  |  | CC[C@H](C)[C@@H]1NC(=O)[C@H](CC)N(C)C(=O)C[C@@H](C(=O)N(C)C)N(C)C(=O)[C@H](C2CCCC2)N(C)C(=O)C2(CCC2)NC(=O)[C@@H]2C[C@@H](C(F)(F)F)CN2C(=O)[C@H](CCc2cc(F)c(C(F)(F)F)c(F)c2)NC(=O)CN(C)C(=O)[C@H](CC2CCC(F)(F)CC2)N2CC/C=C\C[C@@H](C2=O)N(C)C(=O)CN(C)C1=O [PP1451] | A (a compound having 10 or more and less than 20 is denoted as A) | A (a compound having 10 or more and less than 20 is denoted as A) |  |  |  |  |
| 0.13 | 44.5 |  |  | CCO[C@@H]1C[C@H]2C(=O)NC3(CCC3)C(=O)N(C)[C@@H](C3CCCC3)C(=O)N(C)[C@H](C(=O)N(C)C)CC(=O)N(C)[C@@H](CSC)C(=O)N[C@@H]([C@@H](C)CC)C(=O)N(C)CC(=O)N(C)[C@H]3C/C=C\CCN(C3=O)[C@@H](CC3CCCCC3)C(=O)N(C)CC(=O)N[C@@H](CCc3cc(F)c(C(F)(F)F)c(F)c3)C(=O)N2C1 [PP1463] | A (a compound having 10 or more and less than 20 is denoted as A) | A (a compound having 10 or more and less than 20 is denoted as A) |  |  |  |  |
| 0.14 | 50.1 |  |  | CCC[C@H]1C(=O)N[C@@H]([C@@H](C)CC)C(=O)N(C)CC(=O)N(C)[C@H]2C/C=C\CCN(C2=O)[C@@H](CC2CCC(F)(F)CC2)C(=O)N(C)CC(=O)N[C@@H](CCc2cc(F)c(C(F)(F)F)c(F)c2)C(=O)N2C[C@H](OCC)C[C@H]2C(=O)NC2(CCC2)C(=O)N(C)[C@@H](C2CCCC2)C(=O)N(C)[C@H](C(=O)N(C)C)CC(=O)N1C [PP1450] | A (a compound having 10 or more and less than 20 is denoted as A) | A (a compound having 10 or more and less than 20 is denoted as A) |  |  |  |  |
| 0.096 | 15.2 |  |  | C=CC[C@H]1C(=O)N[C@@H]([C@@H](C)CC)C(=O)N(C)CC(=O)N(C)[C@H]2C/C=C\CCN(C2=O)[C@@H](CC2CCC(F)(F)CC2)C(=O)N(C)CC(=O)N[C@@H](CCc2cc(F)c(C(F)(F)F)c(F)c2)C(=O)N2C[C@H](OCC)C[C@H]2C(=O)NC2(CCC2)C(=O)N(C)[C@@H](C2CCCC2)C(=O)N(C)[C@H](C(=O)N(C)C)CC(=O)N1C [PP1454] | A (a compound having 10 or more and less than 20 is denoted as A) | A (a compound having 10 or more and less than 20 is denoted as A) |  |  |  |  |
